Publication PMC8296573, “Synthesis and Biological Evaluation of Fingolimod Derivatives as Antibacterial Agents” (ACS Omega, 2021)
Values after ≈ are worked out from the molar mass of the structure shown. Read-outs that look alike come from different tables or passages of the source.

How the values were obtained:
S. aureus ATCC 25923 [1] = assay: Antibacterial activity, pre-exposure (planktonic cells and biofilm formation); assay type: cell-based, Staphylococcus aureus; details: for MIC / inhibition at 5 µM / inhibition at 10 µM / inhibition at 15 µM / inhibition at 25 µM: Staphylococcus aureus, ATCC25923; for inhibition at 5 µM / inhibition at 10 µM / inhibition at 15 µM / inhibition at 25 µM / Average inhibition %, biofilms viability / Average inhibition %, planktonic cells viability: pre-exposure, ± SD
In short: (§1)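 Growth prevention was tested by adding compounds together with the inoculum. Plates were incubated 18 h at 37 °C. Viability was read by resazurin fluorescence and biomass by crystal violet absorbance at 595 nm.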

S. aureus ATCC 25923 [2] = assay: Antibacterial activity, post-exposure on preformed 18-h-old biofilms; assay type: cell-based, Staphylococcus aureus; details: ± SD; for inhibition at 25 µM / inhibition at 50 µM / inhibition at 100 µM / inhibition at 200 µM: Staphylococcus aureus; for inhibition at 25 µM: ATCC25923, 25 µM; for inhibition at 50 µM: ATCC25923, 50 µM; for inhibition at 100 µM: ATCC25923, 100 µM; for inhibition at 200 µM: ATCC25923, 200 µM
In short: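 Biofilms grown 18 h without compound, medium then replaced and compound added for a further 24 h. Planktonic OD and resazurin (20 μM final) fluorescence (ex 560/em 590 nm) read; washed biofilms stained with 20 μM resazurin 30 min at 37 °C, then ethanol-fixed and crystal violet-stained, absorbance 595 nm.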

S. aureus ATCC 12598 = assay: Antibacterial activity, pre-exposure; assay type: cell-based, Staphylococcus aureus; details: S. aureus ATCC 12598, pre-exposure, ± SD; for inhibition at 5 µM / inhibition at 10 µM / inhibition at 15 µM / inhibition at 25 µM: Staphylococcus aureus, ATCC12598
In short: as §1

A. baumannii NCTC 13423 = assay: Antibacterial activity, pre-exposure; assay type: cell-based, Acinetobacter baumannii; details: for Average inhibition %, biofilms viability / Average inhibition %, planktonic cells viability / inhibition at 10 µM / inhibition at 15 µM / inhibition at 25 µM / inhibition at 50 µM: A. baumannii NCTC 13423, pre-exposure, ± SD; for inhibition at 10 µM / inhibition at 15 µM / inhibition at 25 µM / inhibition at 50 µM: Acinetobacter baumannii, NCTC13423
In short: as §1

P. aeruginosa ATCC 9027 = assay: Antibacterial activity, pre-exposure; assay type: cell-based, Pseudomonas aeruginosa; details: for Average inhibition %, biofilms viability / Average inhibition %, planktonic cells viability / inhibition at 50 µM / inhibition at 100 µM / inhibition at 150 µM / inhibition at 200 µM: P. aeruginosa ATCC 9027, pre-exposure, ± SD; for inhibition at 50 µM / inhibition at 100 µM / inhibition at 150 µM / inhibition at 200 µM: Pseudomonas aeruginosa, ATCC9027
In short: as §1

[3] = 5 µM, read-out: Average inhibition %, biofilms biomass
[4] = 5 µM, read-out: Average inhibition %, planktonic cells turbidity
[5] = 10 µM, read-out: Average inhibition %, biofilms biomass
[6] = 10 µM, read-out: Average inhibition %, planktonic cells turbidity
[7] = 15 µM, read-out: Average inhibition %, biofilms biomass
[8] = 15 µM, read-out: Average inhibition %, planktonic cells turbidity
[9] = 25 µM, read-out: Average inhibition %, biofilms biomass
[10] = 25 µM, read-out: Average inhibition %, planktonic cells turbidity
[11] = read-out: Average inhibition %, biofilms biomass
[12] = read-out: Average inhibition %, planktonic cells turbidity
[13] = 50 µM, read-out: Average inhibition %, biofilms biomass
[14] = 50 µM, read-out: Average inhibition %, planktonic cells turbidity

`CCCCCCCCCCc1ccc2nc(CCC(N)(CO)CO)ccc2c1` [Compound 81, 2-Amino-2-[2-(6-decylquinolin-2-yl)ethyl]propane-1,3-diol] showed an MIC (S. aureus ATCC 25923 [1]; lowest concentration with no visible growth (>90% inhibition of turbidity and viability of planktonic cells), 18 h, read-out: MIC S. aureus ATCC 25923) of 10 to 15 µM (≈ 3.87 to 5.8 µg/mL), an inhibition at 5 µM (S. aureus ATCC 25923 [1]; [3]) of 28.1 ± 33.9% and an inhibition at 5 µM (S. aureus ATCC 25923 [1]; [4]) of 33.4 ± 30.9%. It also gave an inhibition at 10 µM (S. aureus ATCC 25923 [1]; [5]) of 66 ± 27.6%, an inhibition at 10 µM (S. aureus ATCC 25923 [1]; [6]) of 57.3 ± 36.4% and an inhibition at 15 µM (S. aureus ATCC 25923 [1]; [7]) of 98.4 ± 0.3%. The inhibition at 15 µM (S. aureus ATCC 25923 [1]; [8]) was 99.3 ± 0.2%, the inhibition at 25 µM (S. aureus ATCC 25923 [1]; [9]) was 97.3 ± 0.1% and the inhibition at 25 µM (S. aureus ATCC 25923 [1]; [10]) was 98.6 ± 0.3%. The MIC (S. aureus ATCC 25923 [1]; read-out: MIC (S. aureus)) was 10 to 15 µM (≈ 3.87 to 5.8 µg/mL), the “Average inhibition %, biofilms viability” value (S. aureus ATCC 25923 [1]; 5 µM) was 28.3 ± 16.5% and the “Average inhibition %, planktonic cells viability” value (S. aureus ATCC 25923 [1]; 5 µM) was 23.5 ± 26.1%. For the same molecule, the “Average inhibition %, biofilms viability” value (S. aureus ATCC 25923 [1]; 10 µM) was 64 ± 29.7%, the “Average inhibition %, planktonic cells viability” value (S. aureus ATCC 25923 [1]; 10 µM) was 33.9 ± 57% and the “Average inhibition %, biofilms viability” value (S. aureus ATCC 25923 [1]; 15 µM) was 99.1 ± 1%. For the same molecule, the “Average inhibition %, planktonic cells viability” value (S. aureus ATCC 25923 [1]; 15 µM) was 99.7 ± 0%, the “Average inhibition %, biofilms viability” value (S. aureus ATCC 25923 [1]; 25 µM) was 99.1 ± 1.4% and the “Average inhibition %, planktonic cells viability” value (S. aureus ATCC 25923 [1]; 25 µM) was 99.7 ± 0.1%. The “Average inhibition %, biofilms viability” value (S. aureus ATCC 25923 [2]; 25 µM) was 6.4 ± 8.2%, the “Average inhibition %, planktonic cells viability” value (S. aureus ATCC 25923 [2]; 25 µM) was 8.8 ± 7.7% and the “Average inhibition %, biofilms viability” value (S. aureus ATCC 25923 [2]; 50 µM) was 18.3 ± 16.6%. For the same molecule, the “Average inhibition %, planktonic cells viability” value (S. aureus ATCC 25923 [2]; 50 µM) was 6.9 ± 10.4%, the “Average inhibition %, biofilms viability” value (S. aureus ATCC 25923 [2]; 100 µM) was 20.9 ± 18.1% and the “Average inhibition %, planktonic cells viability” value (S. aureus ATCC 25923 [2]; 100 µM) was 28.8 ± 17.2%. For the same molecule, the “Average inhibition %, biofilms viability” value (S. aureus ATCC 25923 [2]; 200 µM) was 20.1 ± 16%, the “Average inhibition %, planktonic cells viability” value (S. aureus ATCC 25923 [2]; 200 µM) was 7.8 ± 11.1% and the inhibition at 25 µM (S. aureus ATCC 25923 [2]; [11]) was 9.7 ± 8.6%. It also gave an inhibition at 25 µM (S. aureus ATCC 25923 [2]; [12]) of 22.7 ± 32.9%, an inhibition at 50 µM (S. aureus ATCC 25923 [2]; [11]) of 28.5 ± 12.5% and an inhibition at 50 µM (S. aureus ATCC 25923 [2]; [12]) of 10 ± 17.4%. It also gave an inhibition at 100 µM (S. aureus ATCC 25923 [2]; [11]) of 34.6 ± 8.2%, an inhibition at 100 µM (S. aureus ATCC 25923 [2]; [12]) of 19 ± 22.4% and an inhibition at 200 µM (S. aureus ATCC 25923 [2]; [11]) of 25 ± 11.6%. The inhibition at 200 µM (S. aureus ATCC 25923 [2]; [12]) was 11.2 ± 16.9%, the “Average inhibition %, biofilms viability” value (S. aureus ATCC 12598; 5 µM) was 15.6 ± 9.7% and the “Average inhibition %, planktonic cells viability” value (S. aureus ATCC 12598; 5 µM) was 4.2 ± 7.3%. For the same molecule, the “Average inhibition %, biofilms viability” value (S. aureus ATCC 12598; 10 µM) was 99.4 ± 0%, the “Average inhibition %, planktonic cells viability” value (S. aureus ATCC 12598; 10 µM) was 99.7 ± 0% and the “Average inhibition %, biofilms viability” value (S. aureus ATCC 12598; 15 µM) was 99.7 ± 0.1%. For the same molecule, the “Average inhibition %, planktonic cells viability” value (S. aureus ATCC 12598; 15 µM) was 99.8 ± 0.1%, the “Average inhibition %, biofilms viability” value (S. aureus ATCC 12598; 25 µM) was 99.7 ± 0.1% and the “Average inhibition %, planktonic cells viability” value (S. aureus ATCC 12598; 25 µM) was 99.6 ± 0.1%. It also gave an inhibition at 5 µM (S. aureus ATCC 12598; [3]) of 19.1 ± 26.4%, an inhibition at 5 µM (S. aureus ATCC 12598; [4]) of 2.1 ± 3.7% and an inhibition at 10 µM (S. aureus ATCC 12598; [5]) of 96 ± 0.6%. It also gave an inhibition at 10 µM (S. aureus ATCC 12598; [6]) of 99.8 ± 0.1%, an inhibition at 15 µM (S. aureus ATCC 12598; [7]) of 93.5 ± 1.8% and an inhibition at 15 µM (S. aureus ATCC 12598; [8]) of 99.7 ± 0.1%. For the same molecule, the inhibition at 25 µM (S. aureus ATCC 12598; [9]) was 88.7 ± 2%, the inhibition at 25 µM (S. aureus ATCC 12598; [10]) was 99.3 ± 0.2% and the “Average inhibition %, biofilms viability” value (A. baumannii NCTC 13423; 10 µM) was 0 ± 0%. The “Average inhibition %, planktonic cells viability” value (A. baumannii NCTC 13423; 10 µM) was 7.5 ± 7.6%, the “Average inhibition %, biofilms viability” value (A. baumannii NCTC 13423; 15 µM) was 0 ± 0% and the “Average inhibition %, planktonic cells viability” value (A. baumannii NCTC 13423; 15 µM) was 5.8 ± 6.2%. The “Average inhibition %, biofilms viability” value (A. baumannii NCTC 13423; 25 µM) was 0 ± 0%, the “Average inhibition %, planktonic cells viability” value (A. baumannii NCTC 13423; 25 µM) was 2.6 ± 2.1% and the “Average inhibition %, biofilms viability” value (A. baumannii NCTC 13423; 50 µM) was 0.8 ± 1.4%. The “Average inhibition %, planktonic cells viability” value (A. baumannii NCTC 13423; 50 µM) was 2.6 ± 3.8%, the inhibition at 10 µM (A. baumannii NCTC 13423; [5]) was 0% and the inhibition at 10 µM (A. baumannii NCTC 13423; [6]) was 0.2 ± 0.5%. For the same molecule, the inhibition at 15 µM (A. baumannii NCTC 13423; [7]) was 2.1 ± 3.6%, the inhibition at 15 µM (A. baumannii NCTC 13423; [8]) was 0% and the inhibition at 25 µM (A. baumannii NCTC 13423; [9]) was 3.6 ± 6.2%. The inhibition at 25 µM (A. baumannii NCTC 13423; [10]) was 0%, the inhibition at 50 µM (A. baumannii NCTC 13423; [13]) was 5.6 ± 5.9% and the inhibition at 50 µM (A. baumannii NCTC 13423; [14]) was 0.5 ± 0.9%. For the same molecule, the “MIC A. baumannii NCTC 13423” value (A. baumannii NCTC 13423; pre-exposure, Inactive = no activity up to 50 μM, > = some inhibition but no MIC reached) was “Inactive”, the “Average inhibition %, biofilms viability” value (P. aeruginosa ATCC 9027; 50 µM) was 4.9 ± 5.2% and the “Average inhibition %, planktonic cells viability” value (P. aeruginosa ATCC 9027; 50 µM) was 10.9 ± 9.5%. The “Average inhibition %, biofilms viability” value (P. aeruginosa ATCC 9027; 100 µM) was 3.8 ± 4.9%, the “Average inhibition %, planktonic cells viability” value (P. aeruginosa ATCC 9027; 100 µM) was 20.3 ± 12.9% and the “Average inhibition %, biofilms viability” value (P. aeruginosa ATCC 9027; 150 µM) was 7.9 ± 11.7%. For the same molecule, the “Average inhibition %, planktonic cells viability” value (P. aeruginosa ATCC 9027; 150 µM) was 16.3 ± 5.7%, the “Average inhibition %, biofilms viability” value (P. aeruginosa ATCC 9027; 200 µM) was 0.3 ± 0.5% and the “Average inhibition %, planktonic cells viability” value (P. aeruginosa ATCC 9027; 200 µM) was 17 ± 16.2%. It also gave an inhibition at 50 µM (P. aeruginosa ATCC 9027; [13]) of 3.6 ± 4.6%, an inhibition at 50 µM (P. aeruginosa ATCC 9027; [14]) of 29.2 ± 5.8% and an inhibition at 100 µM (P. aeruginosa ATCC 9027; 100 µM, read-out: Average inhibition %, biofilms biomass) of 0%. The inhibition at 100 µM (P. aeruginosa ATCC 9027; 100 µM, read-out: Average inhibition %, planktonic cells turbidity) was 41.2 ± 11.2%, the inhibition at 150 µM (P. aeruginosa ATCC 9027; 150 µM, read-out: Average inhibition %, biofilms biomass) was 4 ± 7% and the inhibition at 150 µM (P. aeruginosa ATCC 9027; 150 µM, read-out: Average inhibition %, planktonic cells turbidity) was 38.2 ± 12.2%. For the same molecule, the inhibition at 200 µM (P. aeruginosa ATCC 9027; 200 µM, read-out: Average inhibition %, biofilms biomass) was 0.7 ± 0.6%, the inhibition at 200 µM (P. aeruginosa ATCC 9027; 200 µM, read-out: Average inhibition %, planktonic cells turbidity) was 30.5 ± 8.3% and the “MIC P. aeruginosa ATCC 9027” value (P. aeruginosa ATCC 9027; pre-exposure, Inactive = no activity up to 200 μM, > = some inhibition but no MIC reached) was “Inactive”.
